Assays:
A549 = test: Induction of mitochondrial damage in human A549 cells assessed as increase in ratio of green to red fluorescence intensity measured upon light irradiation by JC-1 staining based fluorescence analysis relative to control; assay type: functional
[1] = Phototoxicity against human A549 cells assessed as inhibition of cell growth incubated for 24 hrs measured under normoxia conditions and after one-photon excitation upon irradiation with light at 520 nm, 200 mW/cm2 for 10 mins by MTT assay; assay type: functional, cell-based; conditions: A549, light or radiation study
HT-29 = test: Cytotoxicity against human HT-29 cells assessed as inhibition of cell growth incubated for 24 hrs measured under normoxia conditions by MTT assay; assay type: functional, cell-based; conditions: HT-29, 24 h
[2] = Drug uptake in human A549 cells assessed as localization in lysosomes by measuring appearance of yellow fluorescence by Hoechst33342/LysoTracker dye based confocal laser scanning microscopic analysis; assay type: ADME, cell-based
[3] = Photosensitizing ability of the compound assessed as hydroxyl radical production upon irradiation by HPF probe based assay relative to control; assay type: functional

For `CCn1c2ccc(/C=C/c3cc[n+](C)c4ccccc34)cc2c2cc(N(c3ccccc3)c3ccccc3)ccc21.[I-]`, the “fold change (FC)” value (A549) was ~100, the IC50 [1] was 27 nM and the IC50 (HT-29) was 1480 nM. The Drug uptake [2] was “Active” and the fold change (FC) [3] was 60.
